Test system: NOMO1
Assay: cell viability relative to DMSO control; higher = less cytotoxic
Conditions: 48 h
Procedure, shortened: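 Three leukemia lines were tested: NOMO1 and SEM at 500 cells/well and P12-Ichikawa at 1000 cells/well. Each was adapted for at least four passages in each medium and seeded in 5 μl in 1536-well plates, and library compounds in DMSO were pin-dosed from 47 μM to 0.79 nM in 11 threefold steps. After 48 h at 37°C, CellTiter-Glo One luminescence was read. Viability is a percentage relative to DMSO wells on each plate, with cell-free wells as background.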

[1] = HPLM + 10% dialyzed FBS, 0.000781 µM
[2] = HPLM + 10% dialyzed FBS, 0.00234 µM
[3] = HPLM + 10% dialyzed FBS, 0.00702 µM
[4] = HPLM + 10% dialyzed FBS, 0.0211 µM
[5] = HPLM + 10% dialyzed FBS, 0.0632 µM
[6] = HPLM + 10% dialyzed FBS, 0.19 µM
[7] = HPLM + 10% dialyzed FBS, 0.569 µM
[8] = HPLM + 10% dialyzed FBS, 1.71 µM
[9] = HPLM + 10% dialyzed FBS, 5.12 µM
[10] = HPLM + 10% dialyzed FBS, 15.4 µM
[11] = HPLM + 10% dialyzed FBS, 46.1 µM
[12] = RPMI 5 mM glucose + 10% FBS, 0.000781 µM
[13] = RPMI 5 mM glucose + 10% FBS, 0.00234 µM
[14] = RPMI 5 mM glucose + 10% FBS, 0.00702 µM
[15] = RPMI 5 mM glucose + 10% FBS, 0.0211 µM
[16] = RPMI 5 mM glucose + 10% FBS, 0.0632 µM
[17] = RPMI 5 mM glucose + 10% FBS, 0.19 µM
[18] = RPMI 5 mM glucose + 10% FBS, 0.569 µM
[19] = RPMI 5 mM glucose + 10% FBS, 1.71 µM
[20] = RPMI 5 mM glucose + 10% FBS, 5.12 µM
[21] = RPMI 5 mM glucose + 10% FBS, 15.4 µM
[22] = RPMI 5 mM glucose + 10% FBS, 46.1 µM
[23] = RPMI 5 mM glucose + 10% dialyzed FBS, 0.000781 µM
[24] = RPMI 5 mM glucose + 10% dialyzed FBS, 0.00234 µM
[25] = RPMI 5 mM glucose + 10% dialyzed FBS, 0.00702 µM
[26] = RPMI 5 mM glucose + 10% dialyzed FBS, 0.0211 µM
[27] = RPMI 5 mM glucose + 10% dialyzed FBS, 0.0632 µM
[28] = RPMI 5 mM glucose + 10% dialyzed FBS, 0.19 µM
[29] = RPMI 5 mM glucose + 10% dialyzed FBS, 0.569 µM
[30] = RPMI 5 mM glucose + 10% dialyzed FBS, 1.71 µM
[31] = RPMI 5 mM glucose + 10% dialyzed FBS, 5.12 µM
[32] = RPMI 5 mM glucose + 10% dialyzed FBS, 15.4 µM
[33] = RPMI 5 mM glucose + 10% dialyzed FBS, 46.1 µM

Structure (SMILES) | cell viability [1] | cell viability [2] | cell viability [3] | cell viability [4] | cell viability [5] | cell viability [6] | cell viability [7] | cell viability [8] | cell viability [9] | cell viability [10] | cell viability [11] | cell viability [12] | cell viability [13] | cell viability [14] | cell viability [15] | cell viability [16] | cell viability [17] | cell viability [18] | cell viability [19] | cell viability [20] | cell viability [21] | cell viability [22] | cell viability [23] | cell viability [24] | cell viability [25] | cell viability [26] | cell viability [27] | cell viability [28] | cell viability [29] | cell viability [30] | cell viability [31] | cell viability [32] | cell viability [33]
CCN1CCN(C(=O)Cc2ccc(Nc3ncc(F)c(Nc4ccc(C(=O)Nc5ccccc5Cl)cc4)n3)cc2)CC1 | 93.9% | 119% | 112% | 115% | 112% | 114% | 109% | 109% | 62.6% | 62.4% | 49.1% | 99.6% | 98.1% | 98% | 92.7% | 111% | 121% | 101% | 90.7% | 81.2% | 47.1% | 59.4% | 97.5% | 109% | 104% | 117% | 107% | 103% | 114% | 103% | 64.9% | 55.8% | 49%
N=C1N[C@H]2[C@H](CS[C@H]2CCCCC(=O)O)N1 | 86.7% | 115% | 121% | 120% | 139% | 126% | 146% | 129% | 138% | 118% | 137% | 113% | 114% | 110% | 109% | 111% | 123% | 107% | 117% | 112% | 120% | 110% | 109% | 122% | 119% | 132% | 121% | 135% | 121% | 131% | 119% | 143% | 136%
CC(C)OC1=CC=C2C(=C1)O\C=C(/C2=O)C3=CC=CC=C3 | 116% | 119% | 130% | 143% | 151% | 120% | 122% | 105% | 108% | 123% | 120% | – | – | – | – | – | – | – | – | – | – | – | – | – | – | – | – | – | – | – | – | – | –
OCc1ccc(-c2ccc(-c3ccc(CO)s3)o2)s1 | 124% | 121% | 138% | 147% | 124% | 114% | 122% | 107% | 118% | 108% | 96.2% | – | – | – | – | – | – | – | – | – | – | – | – | – | – | – | – | – | – | – | – | – | –
CC(C)[C@H](N)C(=O)OCCOC[N]1C=NC2=C1\N=C(N)/NC2=O | 102% | 119% | 110% | 122% | 135% | 135% | 133% | 123% | 133% | 113% | 142% | – | – | – | – | – | – | – | – | – | – | – | – | – | – | – | – | – | – | – | – | – | –
N[S+](=O)([O-])OC[C@@H]1C[C@@H](n2ccc3c(N[C@H]4CCc5ccccc54)ncnc32)C[C@@H]1O | 103% | 118% | 114% | 111% | 110% | 107% | 70.8% | 26.6% | 16.6% | 14.3% | 18.7% | 96.2% | 110% | 92.4% | 113% | 118% | 92.6% | 57.7% | 12.4% | 10.8% | 8.04% | 8.01% | 111% | 97.4% | 104% | 104% | 121% | 103% | 59.8% | 26.7% | 18.5% | 13% | 10.8%
CC/1=C(/N2[C@H](SC1)[C@H](NC(=O)C(N)C3=CC=CC=C3)C2=O)C(O)=O (stereo not given in full) | 106% | 118% | 118% | 137% | 135% | 136% | 145% | 152% | 137% | 106% | 141% | – | – | – | – | – | – | – | – | – | – | – | 109% | 135% | 123% | 148% | 145% | 132% | 149% | 137% | 154% | 146% | 130%
CC(C)(C)[C@H](NC(=O)c1ccc(N)c(Cl)c1)C(=O)N1CCC[C@H]1C(=O)N[C@H](C#N)CC(=O)O | – | – | – | – | – | – | – | – | – | – | – | 113% | 126% | 112% | 118% | 120% | 126% | 116% | 30% | 23% | 22.7% | 20.6% | – | – | – | – | – | – | – | – | – | – | –
CCOC(=O)/C=C/[C@H](C[C@@H]1CCNC1=O)NC(=O)[C@@H](CC(=O)[C@@H](NC(=O)c1cc(C)on1)C(C)C)Cc1ccc(F)cc1 | – | – | – | – | – | – | – | – | – | – | – | – | – | – | – | – | – | – | – | – | – | – | 119% | 124% | 143% | 118% | 132% | 118% | 130% | 131% | 144% | 155% | 125%
COc1cc(O)c2c(c1)C(=O)c1cc(C)cc(O)c1C2=O | – | – | – | – | – | – | – | – | – | – | – | 107% | 119% | 111% | 115% | 102% | 113% | 101% | 110% | 105% | 92.3% | 31.2% | 115% | 114% | 110% | 110% | 120% | 118% | 109% | 119% | 120% | 85.4% | 24.3%
CC(C)(O)c1cc2nc(-c3cnc(N)nc3)nc(N3CCOCC3)c2s1 | – | – | – | – | – | – | – | – | – | – | – | 123% | 121% | 107% | 121% | 110% | 104% | 104% | 88.7% | 76.6% | 63.1% | 67.5% | 121% | 125% | 114% | 105% | 98.2% | 85.8% | 83.3% | 60.8% | 53.4% | 46.8% | 51.8%

— the supplement of paper PMC11451515
